Test results published in the NIST ThermoML archive (doi:10.1016/j.fluid.2012.08.003).
Where “and” joins values, the source holds several entries; their conditions need not be identical. Identical values can stand only once.

Conditions: Liquid, Transpiration method

CCCCCCCOC=O [heptyl methanoate]
Conditions	vapor or sublimation pressure
276.1 K	0.0215 kPa
277.6 K	0.02468 kPa
278.6 K	0.02656 kPa
280.4 K	0.03187 kPa
283.3 K	0.04168 kPa
288.3 K	0.06125 kPa
293.2 K	0.0889 kPa and 0.08971 kPa
293.3 K	0.08835 kPa
298.3 K	0.13 kPa and 0.1304 kPa
303.3 K	0.183 kPa
308.2 K	0.257 kPa
311 K	0.3176 kPa
313.3 K	0.3549 kPa
316.4 K	0.4359 kPa

CCCCCCOC(=O)CC [hexyl propanoate]
Conditions	vapor or sublimation pressure
278.3 K	0.01764 kPa
280.7 K	0.0221 kPa
283.4 K	0.02827 kPa
285.8 K	0.03417 kPa
288.2 K	0.04354 kPa
298.4 K	0.09932 kPa
303.2 K	0.1369 kPa and 0.1363 kPa
308.2 K	0.2024 kPa
313.3 K	0.2793 kPa
318.5 K	0.3993 kPa
323.4 K	0.5422 kPa
326.4 K	0.6804 kPa
328.4 K	0.7646 kPa
330.6 K	0.8602 kPa
333.3 K	0.9961 kPa

CCCCCCCCOC(=O)CC [octyl propanoate]
Conditions	vapor or sublimation pressure [kPa]
293.3 K	0.00465
295.7 K	0.00575
298.4 K	0.00732
300.3 K	0.00883
303.3 K	0.01129
308.3 K	0.0173
313.4 K	0.02656
318.5 K	0.0387
323.4 K	0.0541
328.5 K	0.08043
333.3 K	0.1125
338.3 K	0.155
340.3 K	0.176
343 K	0.2098
346.4 K	0.2681
348.4 K	0.2952

CCCCCCCCOC=O [octyl methanoate]
Conditions	vapor or sublimation pressure
283.3 K	0.01298 kPa
285.7 K	0.01585 kPa
288.2 K	0.01973 kPa
290.8 K	0.02392 kPa
293.3 K	0.02964 kPa
298.4 K	0.04462 kPa
303.2 K	0.0622 kPa and 0.06388 kPa
308.2 K	0.09465 kPa
313.5 K	0.1368 kPa
318.5 K	0.1894 kPa
323.5 K	0.2656 kPa
328.4 K	0.3665 kPa
331.3 K	0.4318 kPa
333.4 K	0.4943 kPa
335.3 K	0.5488 kPa
338.3 K	0.6635 kPa

CCCCCOC(C)=O [pentyl ethanoate]
Conditions	vapor or sublimation pressure
274.2 K	0.08539 kPa
274.3 K	0.08709 kPa
275.6 K	0.0953 kPa and 0.09555 kPa
278.2 K	0.1145 kPa
280.8 K	0.1396 kPa
283.2 K	0.1683 kPa
288.2 K	0.2413 kPa
293.3 K	0.343 kPa
298.4 K	0.4754 kPa
303.3 K	0.658 kPa
306.7 K	0.807 kPa
308.2 K	0.9035 kPa
310.6 K	1.031 kPa
313.4 K	1.219 kPa

CCCCCOC=O [pentyl methanoate]
Conditions	vapor or sublimation pressure
274.2 K	0.2283 kPa
274.3 K	0.2293 kPa
275.7 K	0.2518 kPa
278.3 K	0.3006 kPa and 0.3046 kPa
281 K	0.37 kPa and 0.3692 kPa
283.2 K	0.4349 kPa
288.2 K	0.61 kPa
293.3 K	0.8452 kPa
298.4 K	1.161 kPa
303.3 K	1.571 kPa
305.6 K	1.779 kPa
308 K	2.045 kPa
310.7 K	2.374 kPa
313.3 K	2.757 kPa

CCCCCOC(=O)CC [pentyl propanoate]
Conditions	vapor or sublimation pressure [kPa]
274.1 K	0.02995
275.5 K	0.03342
278.3 K	0.04139
280.9 K	0.05087
283.4 K	0.06315
288.3 K	0.09403
293.3 K	0.1374
298.4 K	0.1984
303.3 K	0.2789
308.2 K	0.3925
313.4 K	0.5328
318.5 K	0.7195
320.7 K	0.8423
323.4 K	0.9568
325.6 K	1.098
328.4 K	1.293

CCCCCCOC=O [hexyl methanoate]
Conditions	vapor or sublimation pressure
275.4 K	0.07241 kPa
278.5 K	0.09094 kPa
283.3 K	0.1319 kPa
288.2 K	0.1935 kPa
293.3 K	0.2694 kPa
293.4 K	0.2753 kPa
298.4 K	0.4056 kPa and 0.4085 kPa
303.2 K	0.5577 kPa
303.3 K	0.5448 kPa
308.3 K	0.7473 kPa and 0.7588 kPa
313.4 K	1.016 kPa and 1.013 kPa
